Test results published in patent publication US11987582B2, “Maleate salts of triazolopyrazine derivatives, compositions, methods of use, and processes of manufacturing the same” (ABION Inc, priority 2021, dated 2024).
Where two headings read alike, the source gives them in different places.

How the values were obtained:
[1] = long-term stability study, chemical purity by HPLC; assay type: physicochemical; settings: for chemical degradation: up to 15 months, in words
Experimental: (§1) The physical and chemical stability study was performed on the compounds of Chemical Formula 2 and Chemical Formula 1 (for reference purposes). The long-term stability study was conducted at defined temperatures and relative humidity levels (25° C./60% relative humidity (RH) and 40° C./75% RH). At regular intervals, a solid sample was analyzed by XRPD, TGMS and HPLC.
The results of the chemical purity determination for the compounds of Chemical Formula 1 and Chemical Formula 2 after 1-, 3- and 15-month exposure to 25° C./60% RH and 40° C./75% RH is presented in FIGS. 4 and 5.

[2] = tested on: lung cancer cell line EBC-1; assay: cancer cell proliferation inhibitory experiment (SRB); assay type: cell-based, human
Experimental: The following exemplary experimental protocol was performed to test the activity of the maleate salt compounds described herein.
An RPMI 1640 cell culture medium, fetal bovine serum (FBS) and trypsin were purchased from GIBCO Co., Ltd. (Grand Island, N.Y.), and sodium hydrogencarbonate, amphotericin B and gentamycin were used as signamic medical products. In addition, reagents such as sulforhodamine (SRB) B, Trisma Base, and trichloroacetic acid (TCA), which were reagents used in a cytotoxicity measurement experiment, were purchased from Sigma Chemical Co., Ltd. For MTS analysis, a Celltiter 96 Aqueous Non-Radioactive Cell Proliferation Assay product was purchased from Promega Co., Ltd. Further, a T-25 culture container used for cell culture, a 96-well plate and other disposable glass used for cell culture were obtained from Folkon (Lincoln Park, N.J.) products.
A drug used in the experiment was diluted as an experimental medium to a desired concentration in the test, and the final dimethylsulfoxide concentration was 0.5% or less.
Cancer cell lines used in the experiment were human-derived cancer cell lines, and a lung cancer cell line EBC-1. RPMI 1640 medium with 10% fetal bovine serum (FBS) was used and cultured in an incubator of 37° C. and 5% CO2 and subcultured once by 3 to 4 days.
Specifically, after the culture with the compound of the present disclosure was terminated, the culture solution was removed, and a cold TCA solution added to each well. The cells were left at 4° C. for 1 hour to be fixed. The TCA solution was removed, and the cells were dried at room temperature, incubated with a solution obtained by dissolving 0.4% SRB in a 1% acetic acid solution, left at room temperature for 30 minutes, and then stained. Extra SRB which was not bound to the cells was washed with a 1% acetic acid solution, and the SRB was eluted by adding a […] tris buffer solution (trisma base; unbuffered) of pH 10.3 to 10.5 to the stained cells.

[3] = pH-dependent solubility study; assay type: physicochemical
[4] = dynamic vapor sorption (DVS) analysis of hygroscopicity; assay type: physicochemical; settings: humidity range below 80%, 25° C., in words
Experimental: Differential scanning calorimetry (DSC) analysis was performed to confirm the thermal stability of the novel salts provided in the present disclosure, and dynamic vapor sorption (DVS) analysis was performed to confirm the hygroscopicity.
The DVS analysis was performed to confirm the hygroscopicity of the salts by using a DVS-1 device, and was performed at a relative humidity of 40%, 95%, and 0% at 25° C. for 60 minutes.

[5] = PK parameters in plasma after single administration; assay type: in vivo, Wistar rats; settings: for AUC(0-inf) / AUC(0-t) / Cmax / Tmax: Wistar, rat, plasma
[6] = long-term stability study, water uptake by TGA; assay type: physicochemical
Experimental: as §1

[7] = thermodynamic solubility in formulation vehicles (phosphate buffer pH 7.4 with excipients); assay type: physicochemical; settings: for solubility at 24 h: pH 7.4, aqueous with cosolvent or surfactant or cyclodextrin, thermodynamic from solid
Experimental: In view of developing a formulation suitable for parenteral administration, the quantitative solubility of Chemical Formula land the Chemical Formula 2 were determined in phosphate buffer pH 7.4, supplemented with solubility-enhancing excipients. The target concentration is 1-1.3 mg/mL.
Based on the qualitative solubility result determined for the PBS formulation vehicle containing Transcutol (Gattefossé, France) and TPGS (tocopherol polyethylene glycol succinate), the quantitative solubility of the compound of Chemical Formula 1 and the compound of Chemical Formula 2 was determined in those vehicles to assess the maximum solubility in those vehicles. The thermodynamic solubility was then determined in PBS buffer containing Transcutol (50% and 10%) and TPGS (20% and 10%) and also in the formulation vehicles containing PEG 400 (50%, with and without presence of 2% DMSO). Suspensions of the compound of Chemical Formula 1 and the compound of Chemical Formula 2 were prepared in the selected vehicles with a compound of Chemical Formula 1 concentration of about 3.5-5 mg/mL. After incubation for 24 hours at room temperature, the solids and liquid phases were separated. The concentration of API in solution was determined by HPLC analysis. The results can be found in FIG. 6.

[8] = PK parameters after bid (twice a day) administration; assay type: in vivo; settings: for Cmax1 / Tmax1: after first daily dosing; for Cmax2 / Tmax2: after second daily dosing; for AUC / AUC(0-t): in vivo; for AUC: read-out: AUC(12-24 h)
Description: FIG. 10 and Table 4 show the PK properties of the compound of Chemical Formula 2 administered twice a day (bid).
FIG. 11 and Table 5 show the PK properties of the compound of Chemical Formula 1 administered twice per day.

CN1CCN(Cc2ccc(-c3cnc(N4CCOC(Cn5nnc6ncc(-c7cnn(C)c7)nc65)C4)nc3)cc2)CC1.O=C(O)/C=C\C(=O)O (stereo not shown) [Chemical Formula 2]
chemical purity greater than the free base form ([1]; 15 months at 40° C. and 75% relative humidity): at least 4.7% | chemical degradation ([1]; 25° C./60% RH): did not show significant chemical degradation | chemical degradation ([1]; 40° C./75% RH): remained chemically stable up to 15 months | GI50 ([2]; Homo sapiens, EBC-1, EBC-1 cell line): 14.2 nM | activity in inhibiting cancer cell growth compared to the compound of Chemical Formula 1 ([2]; in words): improved activity in inhibiting cancer cell growth | less soluble than the free base form ([3]; gastric pH (FIG. 7)): more than 50% | less soluble than the free base form ([3]; pH between 1 and 3): more than 75% | less soluble than the free base form ([3]; pH of about 1.2 in 0.05M gastric media): more than 75% | mass loss due to change in humidity (DVS) [4]: very low | AUClast/Dose ([5]; 5 mg/kg IV): 1630 kg·nM·h/mg | AUC∞/Dose ([5]; 5 mg/kg IV): 1655 kg·nM·h/mg | Cl ([5]; 5 mg/kg IV): 0.000606 mg/h/nM/kg | Vss ([5]; 5 mg/kg IV): 0.00271 mg/nM/kg | Vz ([5]; 5 mg/kg IV): 0.00259 mg/nM/kg | AUClast/Dose ([5]; 5 mg/kg PO): 347 kg·nM·h/mg | AUC∞/Dose ([5]; 5 mg/kg PO): 355 kg·nM·h/mg | F ([5]; 5 mg/kg PO): 21.4% | AUClast/Dose ([5]; 20 mg/kg PO): 341 kg·nM·h/mg | AUC∞/Dose ([5]; 20 mg/kg PO): 346 kg·nM·h/mg | F ([5]; 20 mg/kg PO): 20.9% | AUC(0-inf) ([5]; 5 mg/kg IV): 8.27 µM·h | AUC(0-t) ([5]; 5 mg/kg IV): 8.13 µM·h | AUC(0-inf) ([5]; 5 mg/kg PO): 1.77 µM·h | AUC(0-t) ([5]; 5 mg/kg PO): 1.73 µM·h | Cmax ([5]; 5 mg/kg PO): 246 nM | Tmax ([5]; 5 mg/kg PO): 2 to 4 h | AUC(0-inf) ([5]; 20 mg/kg PO): 6.93 µM·h | AUC(0-t) ([5]; 20 mg/kg PO): 6.82 µM·h | Cmax ([5]; 20 mg/kg PO): 676 nM | Tmax ([5]; 20 mg/kg PO): 2 to 4 h | water content compared to the free base form ([6]; 15 months, 40 degrees centigrade, 75% relative humidity (FIG. 4), in words): nearly four times lower | water content lower than the free base form ([6]; about 15 months at 40° C. and 75% relative humidity): at least 22% | water uptake ([6]; incubation for 15 months under the tested conditions, in words): no significant water uptake | solubility at 24 h ([7]; PBS formulation vehicle with 50% Transcutol, PBS vehicle containing 50% Transcutol, 24 hours at room temperature): > 3500 µg/mL | solubility compared with Chemical Formula 1 ([7]; all the formulation vehicles tested, in words): higher than that of the compound of Chemical Formula 1 | solubility at 24 h ([7]; almost all vehicles, except for the vehicle with 10% Transcutol): > 1300 µg/mL | AUC(0-12 h)/Dose ([8]; 5 mg/kg IV (10 mg/kg/day)): 1060 kg·nM·h/mg | AUC(12-24 h)/Dose ([8]; 5 mg/kg IV (10 mg/kg/day)): 1470 kg·nM·h/mg | AUClast/Dose ([8]; 5 mg/kg IV (10 mg/kg/day)): 1298 kg·nM·h/mg | Cl ([8]; 5 mg/kg IV (10 mg/kg/day)): 0.00086 mg/h/nM/kg | Vss ([8]; 5 mg/kg IV (10 mg/kg/day)): 0.00782 mg/nM/kg | Vz ([8]; 5 mg/kg IV (10 mg/kg/day)): 0.00283 mg/nM/kg | AUC(0-12 h)/Dose ([8]; 5 mg/kg PO (10 mg/kg/day)): 685 kg·nM·h/mg | AUC(12-24 h)/Dose ([8]; 5 mg/kg PO (10 mg/kg/day)): 798 kg·nM·h/mg | AUClast/Dose ([8]; 5 mg/kg PO (10 mg/kg/day)): 742 kg·nM·h/mg | F ([8]; 5 mg/kg PO (10 mg/kg/day)): 57.2% | Cmax1 ([8]; 5 mg/kg PO (10 mg/kg/day)): 611 nM | Tmax1 ([8]; 5 mg/kg PO (10 mg/kg/day)): 0.5-3$ h | Cmax2 ([8]; 5 mg/kg PO (10 mg/kg/day)): 802 nM | Tmax2 ([8]; 5 mg/kg PO (10 mg/kg/day)): 12.5-13$ h | AUC(0-12 h)/Dose ([8]; 20 mg/kg PO (40 mg/kg/day)): 612 kg·nM·h/mg | AUC(12-24 h)/Dose ([8]; 20 mg/kg PO (40 mg/kg/day)): 601 kg·nM·h/mg | AUClast/Dose ([8]; 20 mg/kg PO (40 mg/kg/day)): 607 kg·nM·h/mg | F ([8]; 20 mg/kg PO (40 mg/kg/day)): 46.8% | Cmax1 ([8]; 20 mg/kg PO (40 mg/kg/day)): 1600 nM | Tmax1 ([8]; 20 mg/kg PO (40 mg/kg/day)): 2-3$ h | Cmax2 ([8]; 20 mg/kg PO (40 mg/kg/day)): 2120 nM | Tmax2 ([8]; 20 mg/kg PO (40 mg/kg/day)): 12.5-14$ h | AUC ([8]; 5 mg/kg IV (10 mg/kg/day)): 7.34 µM·h | AUC ([8]; 5 mg/kg PO (10 mg/kg/day)): 3.99 µM·h | AUC ([8]; 20 mg/kg PO (40 mg/kg/day)): 12 µM·h | AUC(0-t) ([8]; iv, 5 mg/kg, 5 mg/kg IV (10 mg/kg/day), read-out: AUC(0-12 h)): 5.32 µM·h | AUC(0-t) ([8]; iv, 5 mg/kg, 5 mg/kg IV (10 mg/kg/day), read-out: AUClast): 13 µM·h | AUC(0-t) ([8]; po, 5 mg/kg, 5 mg/kg PO (10 mg/kg/day), read-out: AUC(0-12 h)): 3.43 µM·h | AUC(0-t) ([8]; po, 5 mg/kg, 5 mg/kg PO (10 mg/kg/day), read-out: AUClast): 7.42 µM·h | AUC(0-t) ([8]; po, 20 mg/kg, 20 mg/kg PO (40 mg/kg/day), read-out: AUC(0-12 h)): 12.2 µM·h | AUC(0-t) ([8]; po, 20 mg/kg, 20 mg/kg PO (40 mg/kg/day), read-out: AUClast): 24.3 µM·h
